Data taken from patent US20230109717A1 (GAIA BioMedicine Inc., priority 2020, published 2023).
Entries after “also recorded” stand apart in the source; their conditions may differ.

Key:
[1] = tested on: highly active NK cells; assay: Viability of freeze-thawed highly active NK cells (7-AAD staining, flow cytometry, FlowJo)
Procedure: The highly activated NK cells (1×10^5 cells/well) thawed under each condition were centrifuged on a 96-well plate (IWAKI, 4870-800SP), the supernatant was removed, and then a 7-amino-actinomycin D (7-AAD) solution diluted with PBS (Beckman Coulter, A 07704) was added to the cells to suspend them, and the suspension was incubated at room temperature (room temperature means 15 to 25° C., the same shall apply in the following experiments) for 20 minutes. The stained cells were measured by using a flow cytometer (BD LSR Fortessa, BD Biosciences).
The NK cells frozen for 48 hours or longer were thawed in a water bath at 37° C., and 1×10^5 cells were dispensed on a 96-well plate (IWAKI) immediately after the thawing. […] The cells dispensed immediately after thawing were centrifuged immediately after they were dispensed, and the cells of the other four groups were centrifuged after incubation of 3 hours, measurement was performed by the method for staining with 7-AAD described above, and the results were analyzed with the FlowJo software (FLOWJO, LLC) to calculate viable cell rates.
The NK cells frozen for 48 hours or longer were thawed at 37° C. in a water bath, and then 1×10^5 of the cells were dispensed on a 96-well plate immediately after the thawing. […] The cells dispensed immediately after thawing were centrifuged immediately after they were dispensed, and the cells of the other four groups were centrifuged after incubation of 3 hours, measurement was performed by the method for staining with 7-AAD described above, and the results were analyzed with the FlowJo software (FLOWJO, LLC) to calculate viable cell rates.
Then, measurement was performed by the method for staining with 7-AAD described above, and the results were analyzed with the FlowJo software. […] Then, measurement was performed by the method for staining with 7-AAD described above, and the results were analyzed with the FlowJo software. (8-3) The experiment was performed in the same manner as in (8-1), but (1) PBS, (2) Plasma-Lyte A, (3) Plasma-Lyte A containing 27.7 mEq/L of lactic acid (Nacalai Tesque, 20006-62), (4) Plasma-Lyte A containing 48.84 mg/L of MgSO4.7H2O (Nacalai Tesque, 21002-85), (5) Lactoringer, (6) Veen-F (Fuso Pharma), (7) Solita-T1 (AY Pharmaceuticals), (8) Solita-T3 (AY Pharmaceuticals), (9) 5% glucose injection solution (Terumo), and (10) RPMI medium were used as the solvents for dilution of thawed cells, and the cells were incubated at 37° C. for 3 hours. In the case of (3), lactic acid was added at the same concentration as the lactate concentration in Lactoringer, and neutrality of the solution was confirmed with litmus test paper. In the case of (4), MgSO4 was added at the same concentration as the MgSO4 concentration in HBSS. Measurement was then performed by the method for staining with 7-AAD described above, and the results were analyzed with the FlowJo software. (8-4) The experiment was performed in the same manner as in (8-2), but the cells were treated by using (1) PBS, (2) Plasma-Lyte A, (3) saline (OTSUKA NORMAL SALINE, Otsuka Pharmaceutical), (4) Bicanate (Otsuka Pharmaceutical), and (5) Solacet F (Terumo) as the solvents for dilution of thawed cells. Measurement was then performed by the method for staining with 7-AAD described above, and the results were analyzed with the FlowJo software. […] Immediately after completely thawed, the cells were diluted 10-fold in (1) Plasma-Lyte A, (2) saline, (3) RPMI 1640 medium, (4) Lactoringer, (5) 0.423 mM CaCl2 prepared in Plasma-Lyte A, and (6) 1.36 mM CaCl2, and left to stand at 37° C. for 3 hours. The CaCl2 concentration of (5) was the same as that in the RPMI 1640 medium, and the CaCl2 concentration of (6) was the same as that in Lactoringer. Measurement was then performed by the method for staining with 7-AAD described above, and the results were analyzed with the FlowJo software.

[2] = tested on: highly active NK cells; assay: Viable cell count and recovery rate of highly active NK cells after thawing, based on cell number at freezing; design: species or system human
Procedure: After the thawing, all the dilution and incubation operations were performed on a low-absorption 6-well plate.
The cells of the groups diluted in the media were incubated overnight at 37° C. under 5% CO2, and then the numbers of viable cells were counted. The experimental conditions are summarized below.
The NK cells obtained by the collection method 1 were suspended in PBS, and incubated at room temperature for 1 hour. The NK cells obtained by the collection method 2 were suspended in (1) the KBM501 medium, (2) KBM501 medium containing 30 μM 4-phenylbutyric acid, (3) KBM501 medium containing 30 μM tauroursodeoxycholic acid dihydrate (TUDCA, Tokyo Kasei Kogyo, T1567), and (4) KBM501 medium containing 30 μM 4-phenylbutyric acid and 30 μM TUDCA, and incubated at 37° C. for 2 hours under 5% CO2. […] After 1 hour, the cells were gently suspended, and number of viable cells was counted. After another 5-fold dilution in the KBM501 medium and incubation at 37° C. for 2 hours under 5% CO2, number of viable cells was counted, and the recovery rate based on the number of cells at the time of freezing was calculated.
(§1) After 1 and 3 hours, the cells were gently suspended, and viable cells were counted. In addition, after 1 hour, the cells were diluted 5-fold in the KBM501 medium, and incubated at 37° C. for 2 hours under 5% CO2, and viable cell were counted. Recovery rate of viable cells after the thawing based on the cell number at the time of freezing was calculated using the number of viable cells at each time point.
as §1, with “on the basis of” for “using”, “point after the thawing.” for “point.”

[3] = tested on: K562 cells; assay: Cytotoxic activity rate (% Lysis) of freeze-thawed highly active NK cells against K562 cells; format: cell-based; settings: Exmp. 7, collect. method 2, pretreatment KBM + 2.4% DMSO 2 h
Procedure: Cytotoxic activity can be expressed as the percentage of target cells killed by effector cells, and is calculated in accordance with the following equation.
(Cell death observed in co-culture with effector cells−Spontaneous cell death (negative control))/(Maximum cell death (positive control)−Spontaneous cell death (negative control))×100
For the measurement of cytotoxic activity, a group of the K562 cells reacted with the NK cells, a group consisting solely of the K562 cells as a negative control, and a group of the K562 cells fixed with 10% formalin as a positive control were prepared.
After incubation for the times indicated for the groups, the cells were collected, and prepared at a density of 2×10^6 cells/mL in 10% FBS/RPMI 1640.
The K562 cells (human chronic myelogenous leukemia cell line) were suspended in serum-free RPMI 1640 medium, stained with PKH26 Red Fluorescent Cell Linker Kit (Sigma, PKH26GL-1KT), and finally prepared at a density of 2×10^6 cells/mL in 10% FBS/RPMI 1640.
The NK cells and K562 cells were added and mixed in wells of 96-well plate (IWAKI, 4870-800SP) at a cell ratio of 1:1, and allowed to react at 37° C. for 2 hours under 5% CO2. After the reaction, the plate was centrifuged (500×g, 5 minutes), and the supernatant was removed. Then, a 7-AAD solution diluted with PBS was added to the cells to suspend the cells, and the suspension was incubated at room temperature for 20 minutes. […]
For the measurement of cytotoxic activity, a group of the NK cells reacted with the K562 cells, a group solely consisting of the K562 cells as a negative control, and a group of the K562 cells fixed with 10% formalin as a positive control were prepared.
The cells were thawed and diluted by the method described above, and a necessary amount of the cells were taken on the basis of the number of viable cells at the time of freezing, and then prepared at a density of 2×10^6 cells/mL in 10% FBS/RPMI 1640.
The K562 cells were suspended in serum-free RPMI 1640 medium, stained with PKH26 Red Fluorescent Cell Linker Kit, and then prepared at a density of 2×10^6 cells/mL in 10% FBS/RPMI 1640. […]
For the measurement of cytotoxic activity, a group of NK cells reacted with K562 cells, a group of K562 cells only as a negative control, and a group of K562 cells fixed with 10% formalin as a positive control were prepared. […]
(9-2) Cytotoxic activity was measured in the same manner as described in the section of (9-1), but after thawing and dilution, the cells were left to stand for up to 6 hours, and cytotoxic activity was measured by the method described in the section b) mentioned above at the time points of 2, 5, and 6 hours. In detail, the NK cells and K562 cells were added to each well of a 96-well plate (IWAKI, 4870-800SP) at a cell ratio of 1:1, mixed, and then allowed to react at 37° C. for 2 hours under 5% CO2.

[4] = tested on: highly active NK cells; assay: Optical microscope observation of highly active NK cells after freeze-thawing; format: cell-based, human; settings: additive in KBM501 medium used for 10-fold dilution after thawing; 37° C. 3 hours (or 4° C. 3 hours then 37° C. 3 hours); cells washed with PBS
Procedure: The NK cells frozen for 48 hours or longer were thawed at 37° C. in a water bath, then diluted 10-fold in the solvents mentioned below, left to stand at the temperatures for the times mentioned below, then observed and photographed under an optical microscope.
<1> Diluted in the KBM501 medium, and left to stand at 37° C. for 3 hours. <2> Diluted in the KBM501 medium containing Z-Vad, and left to stand at 37° C. for 3 hours. <3> Diluted in the KBM501 medium containing methylprednisolone, and left to stand at 37° C. for 3 hours. <4> Diluted in the KBM501 medium containing dexamethasone, and left to stand at 37° C. for 3 hours. <5> Diluted in the KBM501 medium, and left to stand at 4° C. for 3 hours. <6> Diluted in the KBM501 medium containing methylprednisolone, and left to stand at 4° C. for 3 hours, and then at 37° C. for 3 hours. <7> Diluted in the KBM501 medium containing dexamethasone, and left to stand at 4° C. for 3 hours, and then at 37° C. for 3 hours.

O=C([O-])[C@H](O)[C@@H](O)[C@H](O)[C@H](O)CO.[Na+] [gluconic acid, sodium gluconate]
Viability of frozen highly active NK cells after thawing ([1]; added to KBM501 medium used for dilution at thawing (5.02 mg/mL sodium gluconate), 37° C. 3 hours, Example 1): did not show improvement; also recorded: no improvement

O=C(O)CCCc1ccccc1 [4-PBA, 4-phenylbutyric acid]
Viability ([1]; Exmp. 4, collect. method 1, pretreatment KBM + 10 μM 4-PBA 2 h, thawing PlasmaLyte + IL-2 1 h, then KBM o/n): A (“A” means 70% or higher) | Recovery rate after the thawing ([2]; pretreatment 2 hours with KBM501 medium supplemented with 30 μM additive before freezing, Example 5): improved | Viability after the thawing ([2]; treatment with KBM501 supplemented with 10 or 100 μM additive before freezing, viable cells counted after overnight incubation, Example 4): improved

C[S+](C)[O-] [DMSO, dimethyl sulfoxide]
Activity ([3]; thawing PlasmaLyte + IL-2, R.T. 1 h): A (A means 70% or higher) | Activity ([3]; thawing PlasmaLyte + IL-2, R.T. 1 h, then KBM 2 h): A (A means 70% or higher) | Activity ([3]; thawing PlasmaLyte + IL-2, R.T. 3 h): A (A means 70% or higher) | Activity ([3]; thawing PlasmaLyte R.T. 1 h): A (A means 70% or higher) | Activity ([3]; thawing PlasmaLyte R.T. 1 h, then KBM 2 h): A (A means 70% or higher) | Activity ([3]; thawing PlasmaLyte R.T. 3 h): A (A means 70% or higher)

[Cl-].[Cl-].[Mg+2] [MgCl2, Magnesium chloride]
Viability ([1]; 100 mM as solution used at thawing, cells washed with KBM501 medium, conditions (12-4) and (12-5)): degraded

Z-VAD
Viability of highly active NK cells after freeze-thawing (optical micrographs) [4]: not improved
